The subject of assay [1] is Wnt activity (Sp5-Luc reporter in SW480 cells). The experiment in a line: Screening assay for Wnt activity: Sp5-Luc reporter gene assay in SW480 colon carcinoma cells. The class given is cell-based, human. As to conditions: Homo sapiens, 36 to 48 hours. An excerpt: The screening assay for Wnt activity is described as follows. Reporter cell lines can be generated by stably transducing cancer cell lines (e.g., colon cancer) or primary cells (e.g., IEC-6 intestinal cells) with a lentiviral construct that includes a Wnt-responsive promoter driving expression of the firefly luciferase gene.
SW480 colon carcinoma cells were transduced with a lentiviral vector expressing luciferase with a human Sp5 promoter consisting of a sequence of eight TCF/LEF binding sites. SW480 cells stably expressing the Sp5-Luc reporter gene and a hygromycin resistance gene were selected by treatment with 150 μg/mL of hygromycin for 7 days. These stably transduced SW480 cells were expanded in cell culture and used for all further screening activities. […] For Sp5-Luc reporter gene assays, the cells were plated at 4,000 cells/well in 384-well plates with a DMEM medium containing 1% fetal bovine serum, and 1% Penicillin-Streptomycin and incubated for 36 to 48 hours at 37° C. and 5% CO2. Following incubation, 15 μl of BriteLite Plus luminescence reagent (Perkin Elmer) was added to each well of the 384-well assay plates. The plates were placed on an orbital shaker for 2 min and then luminescence was quantified using the Envision (Perkin Elmer) plate reader. Readings were normalized to DMSO only treated cells, and normalized activities were utilized for EC50 calculations using the dose-response log (inhibitor) vs. response-variable slope (four parameters) nonlinear regression feature available in GraphPad Prism 5.0 (or Dotmatics).
(In a reporter assay the amount or activity of a reporter protein is the signal.)

A further assay deals with DYRK1A kinase (Homo sapiens (Human), UniProt Q13627). Nature of the assay: DYRK1A kinase assay (Ser/Thr 18 peptide Z-lyte FRET). Type of assay: biochemical. As to conditions: read-out: EC50 (method: IC50). As to the method: Representative compounds were screened using the assay procedure for DYRK1A kinase activity as described below.
This is a non-radioactive assay using fluorescence resonance energy transfer (FRET) between coumarin and fluorescein to detect kinase activity which is represented as a ratio of coumarin emission/fluorescein emission.
The mixture was allowed to incubate with the representative compounds for one hour at room temperature. All reactions were performed in duplicate. Unphosphorylated (“0% Control”) and phosphorylated (“100% control”) forms of Ser/Thr 18 served as control reactions. Additionally, an 11-point dose-response curve of Staurosporine (1 uM top) was run to serve as a positive compound control.
After incubation, Development Reagent A was diluted in Development Buffer then added to the reaction and allowed to further incubate for one hour at room temperature.

A further assay has as its target GSK3β kinase (Homo sapiens (Human), UniProt P49841). Nature of the assay: GSK3β kinase assay (Ser/Thr 09 peptide Z-lyte FRET). As to conditions: read-out: EC50 (method: IC50). Type of assay: biochemical. As for the experimental part:
Representative compounds were screened using the assay procedure for GSK3β kinase activity as described below.
This is a non-radioactive assay using fluorescence resonance energy transfer (FRET) between coumarin and fluorescein to detect kinase activity which is represented as ratio of coumarin emission/fluorescein emission.
The mixture is allowed to incubate with the representative compounds for one hour at room temperature. All reactions were performed in duplicate. Unphosphorylated (“0% Control”) and phosphorylated (“100% control”) forms of Ser/Thr 18 serve as control reactions.
After incubation, diluted Development Buffer is added to the reaction and allowed to further incubate for one hour at room temperature.
Dose-response curves are generated and inhibitory concentration (IC50) values are calculated using non-linear regression curve fit in the Dotmatics' Studies Software (Bishops Stortford, UK).

Assay [2] relates to SW480 colon carcinoma cells. The experiment in a line: Cell viability assay (CellTiter-Glo) in SW480 colon carcinoma cells. The class given is cell-based, human. Conditions: Homo sapiens, 96 h, four days. As for the experimental part:
Representative compounds were screened using the assay procedure to assess the effect on cell viability as described below.
SW480 colon carcinoma cells were transduced with a lentiviral vector expressing luciferase with a human Sp5 promoter consisting of a sequence of eight TCF/LEF binding sites. SW480 cells stably expressing the Sp5-Luc reporter gene and a hygromycin resistance gene were selected by treatment with 150 μg/mL of hygromycin for 7 days. These stably transduced SW480 cells were expanded in cell culture and used for all further screening activities.
For the Cell Viability Assays, the cells were plated at 2,000 cells/well in 384-well plates with a DMEM medium containing 1% fetal bovine serum, and 1% Penicillin-Streptomycin and incubated for […] at 37° C. and 5% CO2. Eight replicates of DMSO-treated cells served as controls and cells treated with compound were performed in duplicate.
After incubation, 10 μL of CellTiter-Glo (Promega) was added to each well allowed to incubate for approximately 12 minutes. This reagent “results in cell lysis and generation of a luminescent signal proportional to the amount of ATP present. The amount of ATP is directly proportional to the number of cells present in culture, in agreement with previous reports. The CellTiter-Glo® Assay generates a “glow-type” luminescent signal, produced by the luciferase reaction (Promega.com)”.
(In general: ATP-based viability assays read luminescence as a measure of living cells.)

Assay [3] deals with primary human fibroblasts derived from IPF patients (LL29 cells). Nature of the assay: Inhibition of the fibrotic process: αSMA staining in TGF-β1 treated LL29 fibroblasts. The class given is cell-based. Conditions: Homo sapiens, Fibroblast, 96 h; LL29 cells, TGF-β1 20 ng/mL, 4 days, % αSMA positive cells. As for the experimental part: Representative compounds were screened using primary human fibroblasts (derived from IPF patients) treated with TGF-β1 to determine their ability to inhibit the fibrotic process.
LL29 cells were plated at 1,500 cells/well in 70 μL/well F12 medium supplemented with 1% Fetal Bovine Serum. […] Wells treated with TGF-β1 and containing DMSO were used as positive control, and cells with only DMSO were negative control. […] Following incubation for 4 days, SYTOX green nucleic acid stain (Life Technologies [Thermo Fisher Scientific]) was added to the wells at a final concentration of 1 μM and incubated at room temperature for 30 min.

A further assay has as its system IL-6. Nature of the assay: IL-6 inhibition in LPS-stimulated human peripheral blood mononuclear cells (HTRF). The class given is cell-based. As to conditions: Homo sapiens, PBMC; for EC50: huPBMCs, LPS 50 ng/mL, 22 hours, IL-6 HTRF; for inhibition at 10 µM: read-out: percent inhibition at 10 μM. As to the method:
Fresh Normal PB MNC (Catalog #PB001, AllCells, Alameda, Calif.) were shipped overnight at 4° C. and resuspended in Roswell Park Memorial Institute (RPMI) 1640 Medium, with GlutaMAX Supplement (Catalog #61870127, ThermoFisher Scientific, Waltham, Mass.) supplemented with 1% Penicillin-Streptomycin (Catalog #15140163. ThermoFisher Scientific, Waltham, Mass.) and 1% fetal bovine serum (FBS) (Catalog #16140089, ThermoFisher Scientific, Waltham, Mass.) assay media. Fresh normal human peripheral blood mononuclear cells (huPBMCs) were resuspended in 1% FBS-RPMI assay media with 1% Penicillin-Streptomycin 1% to a cell concentration of 1×10e6 cells/mL. […] 50 ng/mL of Lipopolysaccharides from Escherichia coli 0111:B4 (Catalog #L5293-2ML, Sigma-Aldrich, St. Louis, Mo.) was added after 2 hours and cells were incubated for another 22 hours at 37° C.-5% CO2. After 22 hour incubation, a mixture of anti-IL6 XL665 and anti-IL-6 Cryptate diluted in reconstitution buffer (Catalog #62IL6PEC, Cisbio Inc., Bedford, Mass.) was added to each well. Following incubation for 3 hours at room temperature, Homogeneous Time-Resolved Fluorescence (HTRF) was measured using the Envision (Perkin Elmer, Shelton, Conn.) at 665 nm and […]. The ratio of fluorescence at 665 nm to 620 nm was used as a readout for IL-6 quantification. All samples were processed in duplicate. Readings were normalized to DMSO treated cells and normalized activities were utilized for EC50 calculations.
A general note: In TR-FRET formats the signal depends on donor and acceptor labels being close together.

Structures are written as SMILES.

Sequence of GSK3β kinase (P49841 whole entry): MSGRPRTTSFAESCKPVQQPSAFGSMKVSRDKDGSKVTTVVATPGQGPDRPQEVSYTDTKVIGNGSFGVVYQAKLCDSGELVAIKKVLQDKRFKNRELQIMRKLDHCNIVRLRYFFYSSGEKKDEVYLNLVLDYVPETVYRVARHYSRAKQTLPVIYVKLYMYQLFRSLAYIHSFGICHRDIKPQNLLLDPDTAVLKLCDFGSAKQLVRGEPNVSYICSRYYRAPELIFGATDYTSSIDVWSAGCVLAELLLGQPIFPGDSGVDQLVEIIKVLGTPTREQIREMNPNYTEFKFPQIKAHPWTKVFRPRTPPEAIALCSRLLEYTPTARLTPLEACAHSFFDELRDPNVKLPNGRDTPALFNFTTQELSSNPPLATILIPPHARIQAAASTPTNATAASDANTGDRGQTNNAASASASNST

Regarding `O=C(N[C@@H]1CCCC[C@H]1F)c1n[nH]c2ccc(-c3cnn(C4CC4)c3)cc12` [Compound 12, 5-(1-Cyclopropyl-1H-pyrazol-4-yl)-N-((1R,2R)-2-fluorocyclohexyl)-1H-indazole-3-carboxamide], the concentration for a half-maximal effect (EC50) (commonly the concentration at which the effect is half-maximal) in assay [1] was 5470 nM; in assay [2] it was 2260 nM; in assay [3], 621 nM; with IL-6, 1160 nM. For the same compound, the IC50 – broadly, the point on the concentration scale where inhibition reaches its midpoint – at DYRK1A kinase is 171 nM; on GSK3β kinase, 38 nM.

Take `Cc1ncc(-c2ccc3[nH]nc(C(=O)N[C@@H]4CCCC[C@H]4F)c3c2)n1C` [Compound 13, 5-(1,2-Dimethyl-1H-imidazol-5-yl)-N-((1R,2R)-2-fluorocyclohexyl)-1H-indazole-3-carboxamide]: the EC50 in assay [1] was above 10000 nM; in assay [2] it was above 10000 nM; in assay [3] it was 1390 nM; in the assay on IL-6, above 10000 nM. Further, the IC50 came to 46 nM at DYRK1A kinase and 24 nM on GSK3β kinase.

In the case of `Cn1cc(-c2ccc3[nH]nc(C(=O)NC4CCC(F)(F)CC4)c3c2)cn1` [Compound 14, N-(4,4-Difluorocyclohexyl)-5-(1-methyl-1H-pyrazol-4-yl)-1H-indazole-3-carboxamide], the EC50 in assay [1] was 903 nM; in assay [2], above 10000 nM; in assay [3], 114 nM; with IL-6, 3540 nM. For the same compound, the concentration for half-maximal inhibition (IC50) at DYRK1A kinase amounted to 18 nM; on GSK3β kinase, 23 nM.

For `Cn1cc(-c2cc3c(C(=O)NC4CCC(F)(F)CC4)n[nH]c3cc2F)cn1` [Compound 15, N-(4,4-Difluorocyclohexyl)-6-fluoro-5-(1-methyl-1H-pyrazol-4-yl)-1H-indazole-3-carboxamide], the EC50 was above 10000 nM in assay [1], 2600 nM in assay [2], 3320 nM in assay [3] and 3550 nM in the assay on IL-6. Further, the results for the IC50 on DYRK1A kinase and on GSK3β kinase were 36 nM and 58 nM, respectively.

Regarding `CCn1cc(-c2ccc3[nH]nc(C(=O)NC4CCC(F)(F)CC4)c3c2)cn1` [Compound 18, N-(4,4-Difluorocyclohexyl)-5-(1-ethyl-1H-pyrazol-4-yl)-1H-indazole-3-carboxamide], the EC50 is 801 nM in assay [1], 7460 nM in assay [2], 950 nM in assay [3] and 3820 nM with IL-6. Also, the IC50 on DYRK1A kinase stood at 121 nM; at GSK3β kinase, 60 nM.

As for `O=C(NC1CCC(F)(F)CC1)c1n[nH]c2ccc(-c3cnn(C4CC4)c3)cc12` [Compound 19, 5-(1-Cyclopropyl-1H-pyrazol-4-yl)-N-(4,4-difluorocyclohexyl)-1H-indazole-3-carboxamide], the EC50 in assay [1] turned out to be 1050 nM; in assay [2], 3070 nM; in assay [3], 1180 nM; with IL-6, 3680 nM. Further, the figures for the IC50 at DYRK1A kinase and at GSK3β kinase were 117 nM and 64 nM, respectively.

With `Cc1c(-c2ccc3[nH]nc(C(=O)NC4CCC(F)(F)CC4)c3c2)cnn1C` [Compound 20, N-(4,4-Difluorocyclohexyl)-5-(1,5-dimethyl-1H-pyrazol-4-yl)-1H-indazole-3-carboxamide], the EC50 is above 10000 nM in assay [1], above 10000 nM in assay [2], 3410 nM in assay [3] and above 10000 nM with IL-6. The IC50 came out at 13 nM on DYRK1A kinase and 21 nM at GSK3β kinase. For the same compound, the inhibition – broadly, the drop in the measured response relative to a control, in per cent – at 10 µM in the assay on IL-6 is 36.4%.

As for `Cc1nn(C)cc1-c1ccc2[nH]nc(C(=O)NC3CCC(F)(F)CC3)c2c1` [Compound 21, N-(4,4-Difluorocyclohexyl)-5-(1,3-dimethyl-1H-pyrazol-4-yl)-1H-indazole-3-carboxamide], the EC50 in assay [1] is above 10000 nM; in assay [2], above 10000 nM; in assay [3], 294 nM; in the assay with IL-6, above 10000 nM. Further, the IC50 at DYRK1A kinase worked out at 1820 nM; at GSK3β kinase, 903 nM. In addition, in the assay with IL-6, the inhibition at 10 µM came to 15.5%.

For the compound `Cc1ncc(-c2ccc3[nH]nc(C(=O)NC4CCC(F)(F)CC4)c3c2)n1C` [Compound 22, N-(4,4-Difluorocyclohexyl)-5-(1,2-dimethyl-1H-imidazol-5-yl)-1H-indazole-3-carboxamide], the EC50 in assay [1] is 2010 nM; in assay [2] it was above 10000 nM; in assay [3], 2200 nM; in the assay on IL-6 it was above 10000 nM. In addition, the IC50 on DYRK1A kinase came to 25 nM; at GSK3β kinase it was 61 nM. For the same compound, the inhibition at 10 µM with IL-6 came to 10.2%.

As for `Cn1cc(-c2ccc3[nH]nc(C(=O)N[C@H]4CC[C@H](CN5CC(F)C5)CC4)c3c2)cn1` [Compound 23, N-((1R,4R)-4-((3-Fluoroazetidin-1-yl)methyl)cyclohexyl)-5-(1-methyl-1H-pyrazol-4-yl)-1H-indazole-3-carboxamide], the EC50 was found to be 768 nM in assay [1], 409 nM in assay [2], 149 nM in assay [3] and 345 nM with IL-6. The IC50 was 1 nM at DYRK1A kinase and 5 nM at GSK3β kinase.

For the compound `Cn1cc(-c2cc3c(C(=O)N[C@H]4CC[C@H](CN5CC(F)C5)CC4)n[nH]c3cc2F)cn1` [Compound 24, 6-fluoro-N-((1R,4R)-4-((3-fluoroazetidin-1-yl)methyl)cyclohexyl)-5-(1-methyl-1H-pyrazol-4-yl)-1H-indazole-3-carboxamide], the EC50 came to 1340 nM in assay [1], 829 nM in assay [2], 125 nM in assay [3] and 419 nM in the assay on IL-6. In addition, the values for the IC50 on DYRK1A kinase and on GSK3β kinase were 2 nM and 22 nM, respectively.

These data come from patent US10934297B2, “5-heteroaryl substituted indazole-3-carboxamides and preparation and use thereof” (Samumed, LLC, priority 2018, dated 2021).
